Experimental data as given in patent US9174995B2, “Pyrrolotriazinone derivatives” (Merck Patent GmbH, priority 2012, dated 2015).

Key:
[1] = system: Tankyrases; test: Cellular inhibition of Tankyrase: increase of Axin2 level in DLD1 cells (Luminex); assay type: cell-based; conditions: 24 hours, read-out: EC50 tankyrase ½ (cell assay)
Procedure: Measurement of Cellular Inhibition of Tankyrase
Since Tankyrases have been described to modulate cellular level of Axin2 (Huang et al., 2009; Nature) the increase of Axin2 level is used as readout for determination of cellular inhibition of Tankyrases in a Luminex based assay.
Cells of the colon carcinoma cell line DLD1 are plated in 96 well plates with 1.5×10^4 cells per well. Next day, cells are treated with a serial dilution of test compound in seven steps as triplicates with a final DMSO concentration of 0.3%. After 24 hours, cells are lysed in lysis buffer (20 mM Tris/HCl pH 8.0, 150 mM NaCl, 1% NP40, 10% Glycerol) and lysates are cleared by centrifugation through a 96 well filter plate (0.65 μm). Axin2 protein is isolated from cell lysates by incubation with a monoclonal anti-Axin2 antibody (R&D Systems #MAB6078) that is bound to fluorescent carboxybeads. Then, bound Axin2 is specifically detected with a polyclonal anti-Axin2 antibody (Cell Signaling #2151) and an appropriate PE-fluorescent secondary antibody. The amount of isolated Axin2 protein is determined in a Luminex^200 machine (Luminex Corporation) according to the manufacturer's instruction by counting 100 events per well. Inhibition of Tankyrase by test compounds results in higher levels of Axin2 which directly correlates with an increase of detectable fluorescence. As controls cells are treated with solvent alone (neutral control) and with a Tankyrase reference inhibitor IWR-2 (3E-06 M) which refers as control for maximum increase of Axin2. For analysis, the obtained data are normalized against the untreated solvent control and fitted for determination of the EC50 values using the Assay Explorer software (Accelrys).

[2] = molecular target: T1, GST-tagged Tnks-1 (1023-1327 aa) (Homo sapiens, UniProt O95271); test: TNKS1 activity ELISA (autoparsylation assay); assay type: biochemical
T1 construct: GST-tagged Tnks-1 (1023-1327 aa, prepared in-house); made in house
T1 sequence (O95271 1023-1327): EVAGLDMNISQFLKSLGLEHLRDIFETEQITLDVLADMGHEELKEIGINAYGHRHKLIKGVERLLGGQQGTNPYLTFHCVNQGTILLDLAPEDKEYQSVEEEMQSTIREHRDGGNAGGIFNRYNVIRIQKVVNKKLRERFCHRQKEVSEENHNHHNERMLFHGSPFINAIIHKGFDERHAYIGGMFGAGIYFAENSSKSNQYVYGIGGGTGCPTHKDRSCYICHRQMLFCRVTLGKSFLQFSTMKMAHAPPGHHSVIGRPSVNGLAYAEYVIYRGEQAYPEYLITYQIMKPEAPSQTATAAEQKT
Procedure: (§1) Description of the TNKS1 and TNKS2 ELISA Assay
(§2) Biochemical Activity Testing of TNKS 1 and 2: Activity ELISA (Autoparsylation Assay)
(§3) For analysis of autoparsylation activity of TNKS 1 and 2 an activity ELISA is performed: In the first step GST tagged TNKS is captured on a Glutathione coated plate. Then the activity assay with biotinylated NAD is performed in the absence/presence of the compounds. During the enzymatic reaction GST tagged TNKS transfers biotinylated ADP-ribose to itself from biotinylated NAD as co-substrate. For the detection streptavidin-HRP conjugate is added that binds to the biotinylated TNKS and is thereby captured to the plates. The amount of biotinylated resp. autoparsylated TNKS is detected with a luminescence substrate for HRP. The level of the luminescence signal correlats directly with the amount of autoparsylated TNKS and therefore with activity of TNKS.
(§4) The activity ELISA is performed in 384 well Glutathione coated microtiter plates (Express capture Glutathione coated plate, Biocat, Heidelberg, Germany). The plates are pre-equilibrated with PBS. Then the plates are incubated with 50 μl 20 ng/well GST-tagged Tnks-1 (1023-1327 aa, prepared in-house), respectively GST-tagged Tnks-2 (873-1166 aa, prepared in-house) in assay buffer (50 mM HEPES, 4 mM Mg-chloride, 0.05% Pluronic F-68, 2 mM DTT, pH 7.7) overnight at 4° C. The plates are washed 3 times with PBS-Tween-20. The wells are blocked by incubation at room temperature for 20 minutes with 50 μl blocking buffer (PBS, 0.05% Tween-20, 0.5% BSA). Afterwards the plates are washed 3 times with PBS-Tween-20. The enzymatic reaction is performed in 50 μl reaction solution (50 mM HEPES, 4 mM Mg-chloride, 0.05% Pluronic F-68, 1.4 mM DTT, 0.5% DMSO, pH 7.7) with 10 μM bio-NAD (Biolog, Life science Inst., Bremen, Germany) as co-substrate in the absence or presence of the test compound (10 dilution concentrations) for 1 hour at 30° C. The reaction is stopped by 3 times washing with PBS-Tween-20. For the detection 50 μl of 20 ng/μl Streptavidin, HRP conjugate (MoBiTec, Göttingen, Germany) in PBS/0.05%Tween-20/0.01%BSA are added and the plates are incubated for 30 minutes at room temperature. After three times washing with PBS-Tween-20 50 μl of SuperSignal ELISA Femto Maximum sensitivity substrate solution (ThermoFisherScientific (Pierce), Bonn, Germany) are added. Following a 1 minute incubation at room temperature luminescence signals are measured with an Envision multimode reader (Perkin Elmer LAS Germany GmbH) at 700 nm. The full value used is the inhibitor-free reaction. The pharmacological zero value used is XAV-939 (Tocris) in a final concentration of 5 μM. The inhibitory values (IC50) are determined using either the program Symyx Assay Explorer® or Condosseo® from GeneData.

[3] = molecular target: T2, GST-tagged Tnks-2 (873-1166 aa) (Homo sapiens, UniProt Q9H2K2); test: TNKS2 activity ELISA (autoparsylation assay); assay type: biochemical
T2 construct: GST-tagged Tnks-2 (873-1166 aa, prepared in-house); made in house
T2 sequence (Q9H2K2 873-1166): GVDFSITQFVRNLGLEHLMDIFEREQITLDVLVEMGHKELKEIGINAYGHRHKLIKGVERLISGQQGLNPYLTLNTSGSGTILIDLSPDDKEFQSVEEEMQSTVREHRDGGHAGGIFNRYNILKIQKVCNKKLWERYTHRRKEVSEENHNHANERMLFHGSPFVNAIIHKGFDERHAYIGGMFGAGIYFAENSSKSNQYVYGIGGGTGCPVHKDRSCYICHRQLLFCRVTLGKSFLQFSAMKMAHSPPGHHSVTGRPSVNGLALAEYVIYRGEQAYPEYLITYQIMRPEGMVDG
Procedure: as §1, §2, §3, §4

CCC(O)(CC)c1ccc(-c2nn3cccc3c(=O)[nH]2)cc1 [Compound A14, 2-[4-(1-ethyl-1-hydroxy-propyl)-phenyl]-3H-pyrrolo[2,1-f][1,2,4]triazin-4-one]
EC50 [1]: < 300 nM
IC50 [2]: < 300 nM
IC50 [3]: < 300 nM

O=c1[nH]c(-c2ccc(C3(O)CCCC3)cc2)nn2cccc12 [Compound A21, 2-[4-(1-hydroxy-cyclopentyl)-phenyl]-3H-pyrrolo[2,1-f][1,2,4]-triazin-4-one]
EC50 [1]: 300 to 3000 nM
IC50 [2]: < 300 nM
IC50 [3]: < 300 nM

Cc1cc2c(=O)[nH]c(-c3ccc(C(C)(C)O)cc3)nn2c1 [Compound A11, 2-[4-(1-hydroxy-1-methyl-ethyl)phenyl]-6-methyl-3H-pyrrolo[2,1-f][1,2,4]triazin-4-one]
EC50 [1]: 300 to 3000 nM
IC50 [2]: < 300 nM
IC50 [3]: < 300 nM

CC(C)(O)c1ccc(-c2nn3cc(F)cc3c(=O)[nH]2)cc1 [Compound A12, 6-fluoro-2-[4-(1-hydroxy-1-methyl-ethyl)phenyl]-3H-pyrrolo[2,1-f][1,2,4]triazin-4-one]
EC50 [1]: 300 to 3000 nM
IC50 [2]: < 300 nM
IC50 [3]: < 300 nM

Cn1cc(-c2ccc(-c3nn4cccc4c(=O)[nH]3)cc2)cn1 [Compound A7, 2-[4-(1-methyl-1H-pyrazol-4-yl)-phenyl]-3H-pyrrolo[2,1-f][1,2,4]triazin-4-one]
EC50 [1]: 300 to 3000 nM
IC50 [2]: < 300 nM
IC50 [3]: < 300 nM

CC(C)(O)c1ccc(-c2nn3cccc3c(=O)[nH]2)cc1 [Compound A5, 2-[4-(1-hydroxy-1-methyl-ethyl)-phenyl]-3H-pyrrolo[2,1-f][1,2,4]triazin-4-one]
EC50 [1]: 300 to 3000 nM
IC50 [2]: < 300 nM
IC50 [3]: < 300 nM

Cc1cc2c(=O)[nH]c(-c3ccc(-c4cnn(C)c4)cc3)nn2c1 [Compound A13, 6-methyl-2-[4-(1-methylpyrazol-4-yl)phenyl]-3H-pyrrolo-[2,1-f][1,2,4]triazin-4-one]
EC50 [1]: 300 to 3000 nM
IC50 [2]: < 300 nM
IC50 [3]: < 300 nM

CC(C)(O)c1ccc(-c2nn3cc(Cl)cc3c(=O)[nH]2)cc1 [Compound A18, 6-chloro-2-[4-(1-hydroxy-1-methyl-ethyl)-phenyl]-3H-pyrrolo[2,1-f][1,2,4]triazin-4-one]
EC50 [1]: 300 to 3000 nM
IC50 [2]: < 300 nM
IC50 [3]: < 300 nM

CC(C)(OCCO)c1ccc(-c2nn3cccc3c(=O)[nH]2)cc1 [Compound A15, 2-{4-[1-(2-hydroxy-ethoxy)-1-methyl-ethyl]-phenyl}-3H-pyrrolo[2,1-f][1,2,4]triazin-4-one]
EC50 [1]: 300 to 3000 nM
IC50 [2]: < 300 nM
IC50 [3]: < 300 nM
